Test in all cases: cells
For one assay, the system named is 1A9 ovarian carcinoma. It is filed as cell-based, human. To be noted: 3-day exposure, average of two or more separate experiments. The source says: (§1) As indicated above, all of the compounds of formula I are anti-tumor agents and are, therefore, useful in inhibiting the growth of various lymphomas, sarcomas, carcinomas, myelomas, and leukemia cell lines. […] This assay was adapted from the 60 cell line assay used by the National Cancer Institute (NCI) with the following modifications: • 1) four cell lines representative for the important tumor types, viz., MIP 101 colon carcinoma, HCT 116 colon carcinoma, 1A9 ovarian carcinoma and 1A9PTX22 ovarian carcinoma, were utilized; and 2) a tetrazolium derivative, viz., MTT, was utilized to determine cell density.
(§2) The ADGMA compares the number of viable cells following a 3-day exposure to a test compound relative to the number of cells present at the time the test compound was added. […] The absorbance at 540 nm (A540) of the formazan derivative is proportional to the number of viable cells. The IC50 for a test compound is the concentration of compound required to reduce the final cell number to 50% of the final control cell number. If cell proliferation is inhibited, the assay further defines compounds as cytostatic (cell number after 3-day compound incubation >cell number at time of compound addition) or cytotoxic (cell number after 3-day compound incubation <cell number at time of compound addition).
(§3) The HCT 116 colon carcinoma cell line was obtained from the American Type Culture Collection (ATCC, Rockville, Md.). The MIP 101 colon carcinoma cell line was obtained from Dr. Robert Kramer (Bristol Meyers Squibb) and was previously described (Niles R M, Wilhelm S A, Steele G D JR, Burke B, Christensen T, Dexter D, O'Brien M J, Thomas P, Zamcheck N. Isolation and characterization of an undifferentiated human colon carcinoma cell line (MIP-101). Cancer Invest. 1987;5(6):545–52.). The 1A9 and the 1A9PTX22 ovarian tumor cell lines were obtained from Dr. Tito Fojo, Medicine Branch, Division of Clinical Sciences, National Cancer Institute, National Institutes of Health, Bethesda, Md. 20892. The 1A9 is a clone of the ovarian carcinoma cell line, A2780 (Giannakakou P, Sackett, D L, Kang Y-K, Zhan Z, Buters J T M, Fojo T, Poruchynsky MS. Paclitaxel-resistant human ovarian cancer cells have mutant δ-tubulins that impaired paclitaxel-driven polymerization. J. Biol. Chem. 1997, 272(4):17118–17125). The 1A9PTX22 subline was isolated as an individual clone from the 1A9 cell line in a single step selection by exposure to 5 ng/mL paclitaxel in the presence of 5 μg/mL of verapamil. All cell lines were used between passages 4–20 following thawing. MIP-101 colon carcinoma, HCT 116 colon carcinoma, 1A9 ovarian carcinoma and 1A9PTX22 ovarian carcinoma cell lines are maintained and plated in RPMI 1640 medium containing 10% fetal bovine serum.
(§4) Cells are trypsinized and counted using a hemacytometer to determine cell concentrations. Cells were then plated in their respective maintenance media (200 μL/well) in 96-well plates at the following concentrations: MIP-101, 2000 cells/well; HCT 116, 2000 cells/well; 1A9, 10000 cells/well; and 1A9PTX22, 10000 cells/well. […] Initial cell densities, assayed one day after plating, are roughly 0.10–0.20 A540 absorbance units greater than the media blank. Ninety-six well plates were seeded on day 0 and the test compounds are added on day 1. A “time 0” plate was created that received media only in row A and one cell line/row in rows B–E. The “time 0” plate was processed 24 hours after plating (at the time when drugs were added to experimental plates), as follows: 5 micoliters of the MTT stock solution (0.5 mg/mL in PBS) was added to each well and then incubated for three hours at 37° C., 5% CO2, in a humidified environment. Media was then carefully and completely removed. Plates were allowed to dry in the dark. DMSO (dimethylsulfoxide) was added to each well (100 μL/well) and plates were placed on an orbital shaker for 2 hours. […]

Another assay has as its system MIP 101 colon carcinoma. The class given is cell-based, human. To be noted: 3-day exposure, average of two or more separate experiments, read-out: IC50 MIP101.
Text: as §1, §2, §3, §4

Assay [1] relates to 1A9PTX22 ovarian carcinoma. It is filed as cell-based, human. To be noted: 3-day exposure, paclitaxel-resistant subline, average of two or more separate experiments.
Text: as §1, §2, §3, §4

Another assay has as its system HCT 116 colon carcinoma. It is filed as cell-based. The conditions noted are these: 3-day exposure, average of two or more separate experiments, read-out: IC50 HCT116.
Text: as §1, §2
The HCT 116 colon carcinoma cell line was obtained from the American Type Culture Collection (ATCC, Rockville, Md.). The MIP 101 colon carcinoma cell line was obtained from Dr. Robert Kramer (Bristol Meyers Squibb) and was previously described (Niles R M, Wilhelm S A, Steele G D JR, Burke B, Christensen T, Dexter D, O'Brien M J, Thomas P, Zamcheck N. Isolation and characterization of an undifferentiated human colon carcinoma cell line (MIP-101). Cancer Invest. 1987;5(6):545–52.). […]
Cells are trypsinized and counted using a hemacytometer to determine cell concentrations. […] Initial cell densities, assayed one day after plating, are roughly 0.10–0.20 A540 absorbance units greater than the media blank. […]

pIC50: −log10 of the molar value. Read-outs that look alike come from different tables or passages of the source.

Take “(2R,3S,4S,5S,7S,8Z,10S,11S,12S,13Z,16S,17R,18S,19S,20S)-19-[(aminocarbonyl)oxy]-3,5,7,11,17-pentahydroxy-2,3,4,10,12,14,16,18,20-nonamethyl-21-(phenylmethoxy)-8,13-heneicosadienoic acid δ-lactone [Ex. 1]”: the negative-log IC50 (pIC50) in the assay on 1A9 ovarian carcinoma was 7.52; in the assay on MIP 101 colon carcinoma it was 5.42; in assay [1], 6.74; in the assay on HCT 116 colon carcinoma, 6.70.
Regarding `CC(=O)O[C@H]1C(=O)[C@@]2(C)[C@H]([C@H](OC(=O)c3ccccc3)[C@]3(O)C[C@H](OC(=O)[C@H](O)[C@@H](NC(=O)c4ccccc4)c4ccccc4)C(C)=C1C3(C)C)[C@]1(OC(C)=O)CO[C@@H]1C[C@@H]2O` [paclitaxel, reference compound], the negative-log IC50 (pIC50) in the assay on 1A9 ovarian carcinoma (Homo sapiens, 72 h) was 7.33; with MIP 101 colon carcinoma (Homo sapiens, 72 h), 6.70; in assay [1] (Homo sapiens, 1A9/ptx-22, 72 h) it was 9.00; with HCT 116 colon carcinoma (Homo sapiens, HCT-116, 72 h) it was 9.52.
The corresponding values for `C=C/C=C\[C@H](C)C(OC(N)=O)C(C)C(O)C(C)C(=O)N(C)C[C@H](C)[C@@H](O)[C@@H](C)/C=C\C(O)C[C@@H]1OC(=O)[C@H](C)C(O)C1C` (stereo partly drawn) [Ex. 2, (2R,3S,4R,5S,7S,8Z)-13-[[(2R,3S,4S,5S,6S,7Z)-5-[(aminocarbonyl)oxy]-3-hydroxy-2,4,6-trimethyl-1-oxo-7,9-decadienyl]methylamino]-3,5,7,11-tetrahydroxy-2,4,10,12-tetramethyl-8-tridecenoic acid δ-lactone] are 5.40, 4.70, 5.22 and 4.89.

The pIC50 is the negative decadic logarithm of the IC50, by convention in mol/L.

The values are drawn from patent publication US7148218B2 (priority 2001, dated 2006).
